Test results taken from PubChem BioAssay AID256 (DTP/NCI, 2004).
“And” between values parts separate entries of the source, which are not always exact repeats. Identical values can stand only once. Inconclusive results and toxic doses are left out. How the source made its calls: active means survival T/C of 150% or more; inactive means T/C below 125% in these data.

System: CD2F1 mice, L1210 leukemia ip, survival T/C
Assay: NCI In Vivo Anticancer Drug Screen. Data for tumor model L1210 Leukemia (intraperitoneal) in CD2F1 (CDF1) mice
Conditions: endpoint: mean survival time, higher = longer survival
How it was run: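 Tumor-bearing mice (transplanted tumor) were split into treated and vehicle control groups, and the measured endpoint of each treated group was divided by that of its vehicle controls.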

[1] = dose: 75.0 mg/kg/injection, schedule: Q01DX001 (ip), vehicle: saline
[2] = dose: 150.0 mg/kg/injection, schedule: Q01DX001 (ip), vehicle: saline
[3] = dose: 300.0 mg/kg/injection, schedule: Q01DX001 (ip), vehicle: saline
[4] = dose: 100.0 mg/kg/injection, schedule: Q04DX003 (ip), vehicle: saline with Tween-80
[5] = dose: 200.0 mg/kg/injection, schedule: Q04DX003 (ip), vehicle: saline with Tween-80
[6] = dose: 400.0 mg/kg/injection, schedule: Q04DX003 (ip), vehicle: saline with Tween-80
[7] = dose: 100.0 mg/kg/injection, schedule: Q01DX009 (ip), vehicle: saline with Tween-80
[8] = dose: 200.0 mg/kg/injection, schedule: Q01DX009 (ip), vehicle: saline with Tween-80
[9] = dose: 400.0 mg/kg/injection, schedule: Q01DX009 (ip), vehicle: saline with Tween-80
[10] = dose: 25.0 mg/kg/injection, schedule: Q04DX003 (ip), vehicle: other
[11] = dose: 50.0 mg/kg/injection, schedule: Q04DX003 (ip), vehicle: other
[12] = dose: 5.0 mg/kg/injection, schedule: Q01DX009 (ip), vehicle: saline with Tween-80

Measured: T/C

C=C1C(=O)O[C@H]2C[C@@]3(C)[C@H](O)CCC(=C)[C@@H]3[C@@H](OC(C)=O)[C@H]12
inactive: [1] 102 % of control | [2] 106 % of control | [3] 103 % of control

CCOC1=NN(c2ccccc2)C(=O)C1
inactive: [4] 97 % of control | [5] 100 % of control | [6] 103 % of control

Cc1ccc(S(=O)(=O)OCC(OS(=O)(=O)c2ccc(C)cc2)C(O)C(O)C(O)CO)cc1 (centres undefined)
inactive: [4] 97 % of control | [5] 91 % of control | [6] 91 % of control

C=CCN1CCCC1=O
inactive: [7] 100 % of control | [8] 102 % of control | [9] 102 % of control

FC(F)(F)/C([S-])=C(/[S-])C(F)(F)F.FC(F)(F)/C([S-])=C(/[S-])C(F)(F)F.FC(F)(F)/C([S-])=C(/[S-])C(F)(F)F.FC(F)(F)/C([S-])=C(/[S-])C(F)(F)F.[Co+3].[Co+3]
inactive: dose: 12.5 mg/kg/injection, schedule: Q04DX003 (ip), vehicle: other 95 % of control | [10] 95 % of control | [11] 98 % of control

O=NN1CCCCCC1=O
inactive: [1] 108 % of control | [2] 110 % of control | [3] 120 % of control

COc1ccccc1/C(C)=N\NC(=O)c1ccccc1
inactive: [7] 94 % of control | [4] 94 % of control | [8] 96 % of control | [5] 98 % of control | [6] 104 % of control

Cc1ccc(NC(=O)c2ccccc2Cl)cc1
inactive: [7] 95 % of control | [4] 95 % of control | [8] 92 % of control | [5] 96 % of control | [9] 94 % of control | [6] 93 % of control

O=c1[nH]cccc1[N+](=O)[O-]
inactive: [4] 106 % of control | [5] 106 % of control | [6] 101 % of control

CSCCCCCCSC
inactive: [4] 95 % of control | [5] 101 % of control

C/C(=N/Nc1ccc([N+](=O)[O-])cc1[N+](=O)[O-])C1CC2CCC1C2 (centres undefined)
inactive: dose: 100.0 mg/kg/injection, schedule: Q01DX001 (ip), vehicle: saline with Tween-80 100 % of control | dose: 200.0 mg/kg/injection, schedule: Q01DX001 (ip), vehicle: saline with Tween-80 96 % of control | dose: 400.0 mg/kg/injection, schedule: Q01DX001 (ip), vehicle: saline with Tween-80 96 % of control

C/C=C1/C[C@@H](C)[C@@](C)(O)C(=O)OCC2=CCN3CC[C@@H](OC1=O)[C@@H]23
inactive: dose: 50.0 mg/kg/injection, schedule: Q04DX003 (ip), vehicle: saline with Tween-80 103 % of control | [4] 103 % of control | [5] 98 % of control

C(#Cc1ccccc1)C[P+](c1ccccc1)(c1ccccc1)c1ccccc1
inactive: dose: 1.25 mg/kg/injection, schedule: Q01DX009 (ip), vehicle: saline with Tween-80 95 % of control | dose: 2.5 mg/kg/injection, schedule: Q01DX009 (ip), vehicle: saline with Tween-80 101 % of control | dose: 5.0 mg/kg/injection, schedule: Q01DX001 (ip), vehicle: saline with Tween-80 102 % of control | [12] 93 % of control and 103 % of control | dose: 10.0 mg/kg/injection, schedule: Q01DX001 (ip), vehicle: saline with Tween-80 106 % of control | dose: 20.0 mg/kg/injection, schedule: Q01DX001 (ip), vehicle: saline with Tween-80 104 % of control

Cc1cc2ncn(C(=O)Nc3ccccc3)c2cc1C
inactive: [7] 105 % of control | [8] 94 % of control | [9] 96 % of control

Cc1c(C)c(C)c2c(c1C)CCC2O (centres undefined)
inactive: dose: 12.5 mg/kg/injection, schedule: Q01DX009 (ip), vehicle: saline with Tween-80 102 % of control and 105 % of control | dose: 25.0 mg/kg/injection, schedule: Q01DX009 (ip), vehicle: saline with Tween-80 97 % of control and 94 % of control | dose: 50.0 mg/kg/injection, schedule: Q01DX009 (ip), vehicle: saline with Tween-80 100 % of control [middle of 4 runs]

Nc1ccc(C(=O)Nc2ccc(S(=O)(=O)F)cc2)cc1
inactive: dose: 100.0 mg/kg/injection, schedule: Q01DX001 (ip), vehicle: saline 100 % of control | dose: 200.0 mg/kg/injection, schedule: Q01DX001 (ip), vehicle: saline 96 % of control | dose: 400.0 mg/kg/injection, schedule: Q01DX001 (ip), vehicle: saline 102 % of control

C[n+]1ccccc1/C=C/c1cccc([N+](=O)[O-])c1
inactive: [12] 100 % of control | dose: 10.0 mg/kg/injection, schedule: Q01DX009 (ip), vehicle: saline with Tween-80 105 % of control | dose: 20.0 mg/kg/injection, schedule: Q01DX009 (ip), vehicle: saline with Tween-80 107 % of control

CCCCCCCCCC(=O)NCC[N+](C)(C)C
inactive: dose: 5.0 mg/kg/injection, schedule: Q01DX001 (ip), vehicle: saline 107 % of control | dose: 10.0 mg/kg/injection, schedule: Q01DX001 (ip), vehicle: saline 102 % of control | dose: 20.0 mg/kg/injection, schedule: Q01DX001 (ip), vehicle: saline 103 % of control | dose: 40.0 mg/kg/injection, schedule: Q01DX001 (ip), vehicle: saline 103 % of control | dose: 80.0 mg/kg/injection, schedule: Q01DX001 (ip), vehicle: saline 103 % of control

CCCCNC(=S)S
inactive: [7] 100 % of control | [4] 100 % of control | [8] 102 % of control | [5] 92 % of control | [9] 100 % of control | [6] 94 % of control

CC(=O)Nc1ncc2ccccc2c1-c1ccc(NC(=O)CN(CCCl)CCCl)cc1
inactive: [10] 112 % of control | [11] 116 % of control | dose: 100.0 mg/kg/injection, schedule: Q04DX003 (ip), vehicle: other 112 % of control | dose: 200.0 mg/kg/injection, schedule: Q04DX003 (ip), vehicle: other 124 % of control

Nc1cccc2c1-c1ccccc1C2
inactive: dose: 50.0 mg/kg/injection, schedule: Q04DX003 (ip), vehicle: Klucel (hydroxypropylcellulose) (HPC) 105 % of control | dose: 100.0 mg/kg/injection, schedule: Q04DX003 (ip), vehicle: Klucel (hydroxypropylcellulose) (HPC) 96 % of control | dose: 200.0 mg/kg/injection, schedule: Q04DX003 (ip), vehicle: Klucel (hydroxypropylcellulose) (HPC) 102 % of control

CN/N=C1\CCC2(C)C(CCC3C4CCC(O)C4(C)CCC32)C1 (centres undefined)
inactive: dose: 12.5 mg/kg/injection, schedule: Q01DX009 (ip), vehicle: Klucel (hydroxypropylcellulose) (HPC) 88 % of control | dose: 25.0 mg/kg/injection, schedule: Q01DX009 (ip), vehicle: Klucel (hydroxypropylcellulose) (HPC) 89 % of control | dose: 50.0 mg/kg/injection, schedule: Q01DX009 (ip), vehicle: Klucel (hydroxypropylcellulose) (HPC) 91 % of control and 105 % of control

CC(=O)OC1COC(n2nnc(C#N)c2C#N)C(OC(C)=O)C1OC(C)=O (centres undefined)
inactive: dose: 12.5 mg/kg/injection, schedule: Q01DX005 (ip), vehicle: distilled water + Tween-80 103 % of control and 98 % of control | dose: 25.0 mg/kg/injection, schedule: Q01DX005 (ip), vehicle: distilled water + Tween-80 97 % of control and 103 % of control | dose: 50.0 mg/kg/injection, schedule: Q01DX005 (ip), vehicle: distilled water + Tween-80 98 % of control and 101 % of control | dose: 100.0 mg/kg/injection, schedule: Q01DX005 (ip), vehicle: distilled water + Tween-80 104 % of control and 106 % of control | dose: 200.0 mg/kg/injection, schedule: Q01DX005 (ip), vehicle: distilled water + Tween-80 95 % of control

CCCCCC(CC)OC(=O)Nc1cccc2ccccc12 (centres undefined)
inactive: [4] 89 % of control | [5] 101 % of control | [6] 100 % of control

O=C(O)/C=C/C(=O)Nc1ccccc1Cl
inactive: [7] 96 % of control | [4] 94 % of control | [8] 96 % of control | [5] 105 % of control | [6] 101 % of control

CCCCCCC[CH2][Sn]([CH2]CCCCCCC)([NH]S(=O)(=O)c1ccc(C)cc1)[NH]S(=O)(=O)c1ccc(C)cc1
inactive: dose: 75.0 mg/kg/injection, schedule: Q01DX001 (ip), vehicle: other 113 % of control | dose: 150.0 mg/kg/injection, schedule: Q01DX001 (ip), vehicle: other 107 % of control

CC(=O)Nc1ccc(CC#N)cc1
inactive: dose: 5.0 mg/kg/injection, schedule: Q04DX003 (ip), vehicle: saline sonified 103 % of control | dose: 10.0 mg/kg/injection, schedule: Q04DX003 (ip), vehicle: saline sonified 114 % of control | dose: 20.0 mg/kg/injection, schedule: Q04DX003 (ip), vehicle: saline sonified 94 % of control

S=C1OC(c2ccccc2)(c2ccccc2)c2ccsc21
inactive: dose: 25.0 mg/kg/injection, schedule: Q01DX001 (ip), vehicle: saline with Tween-80 95 % of control | dose: 50.0 mg/kg/injection, schedule: Q01DX001 (ip), vehicle: saline with Tween-80 95 % of control

COCC1C(N)C(C)NC(Cl)C1C#N (centres undefined)
inactive: [7] 97 % of control | [4] 95 % of control | [8] 97 % of control | [5] 100 % of control | [6] 100 % of control

Oc1c(O)c(Br)c(Br)c(Br)c1Br
inactive: dose: 100.0 mg/kg/injection, schedule: Q01DX001 (ip), vehicle: other 98 % of control | dose: 200.0 mg/kg/injection, schedule: Q01DX001 (ip), vehicle: other 103 % of control

CCN(C(=O)Nc1cccc(Cl)c1)c1ccccc1C
inactive: [7] 91 % of control | [8] 97 % of control | [9] 97 % of control
